Source: patent publication US20030229053A1, “Compounds and methods for the treatment or prevention of flavivirus infections” (Shire BioChem Inc., priority 2001, published 2003)

molecular target: HCV NS5B RNA-dependent RNA polymerase (Hepatitis C virus genotype 1b, UniProt P26663); assay: In vitro RNA-dependent RNA polymerase assay (Assay 1), polyA/oligo dT, TCA precipitation; assay type: biochemical; conditions: polyA/oligo dT template/primer, 200 ng NS5B, 2 h at 22° C.; read-out: RNA pol Assay 1 IC50 (μm)
Summary of the method: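 Purified NS5B (200 ng) on annealed polyA/oligo dT15 in 20 mM Tris-HCl pH 7.5, 50 mM NaCl, 5 mM MgCl2, 1 mM DTT, 15 µM cold UTP plus [32P]-UTP, 2 h at 22°C. Product TCA-precipitated, filtered onto glass-fibre and counted by liquid scintillation.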

HCV NS5B RNA-dependent RNA polymerase, sequence (P26663 2420-3010 limits assumed): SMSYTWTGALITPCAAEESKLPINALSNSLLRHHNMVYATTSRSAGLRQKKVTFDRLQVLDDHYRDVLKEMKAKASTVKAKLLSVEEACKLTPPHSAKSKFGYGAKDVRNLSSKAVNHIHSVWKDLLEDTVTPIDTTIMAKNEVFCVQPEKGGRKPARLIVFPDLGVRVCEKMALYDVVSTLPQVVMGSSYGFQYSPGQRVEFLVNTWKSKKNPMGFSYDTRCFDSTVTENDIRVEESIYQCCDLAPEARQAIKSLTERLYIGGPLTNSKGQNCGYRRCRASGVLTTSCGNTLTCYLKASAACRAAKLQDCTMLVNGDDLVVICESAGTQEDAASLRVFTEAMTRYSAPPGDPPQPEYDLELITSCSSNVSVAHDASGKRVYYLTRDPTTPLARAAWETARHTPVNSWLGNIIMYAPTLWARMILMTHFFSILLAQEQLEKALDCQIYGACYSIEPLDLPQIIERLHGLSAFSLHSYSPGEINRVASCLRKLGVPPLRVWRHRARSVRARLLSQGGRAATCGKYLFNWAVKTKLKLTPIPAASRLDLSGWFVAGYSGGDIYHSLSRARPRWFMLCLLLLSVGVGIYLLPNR

SMILES | IC50 [µM]
O=C(O)[C@H](Cc1ccccc1)N(Cc1cc(-c2ccc(Cl)c(F)c2)cs1)C(=O)c1ccc(Cl)cc1Cl [compound #88, (2s)-2-[[4-(4-Chloro-3-fluoro-phenyl)-thiophen-2-ylmethyl]-(2,4-dichloro-benzoyl)-amino]-3-phenyl-propionic acid] | < 5
O=C(O)[C@H](Cc1ccccc1)N(Cc1cc(-c2ccc(F)c(Cl)c2)cs1)C(=O)c1ccc(Cl)cc1Cl [compound #89, (2s)-2-[[4-(3-Chloro-4-fluoro-phenyl)-thiophen-2-ylmethyl]-(2,4-dichloro-benzoyl)-amino]-3-phenyl-propionic acid] | < 5
O=C(O)[C@H](Cc1ccccc1)N(Cc1cc(-c2ccc(Cl)cc2Cl)cs1)C(=O)c1ccc(Cl)cc1Cl [compound #90, (2s) -2-{(2,4-Dichloro-benzoyl)-[4-(2,4-dichloro-phenyl)-thiophen-2-ylmethyl]-amino}-3-phenyl-propionic acid] | < 5
O=C(O)[C@H](Cc1ccccc1)N(Cc1ccc(-c2ccc(F)c(Cl)c2)s1)C(=O)c1ccc(Cl)cc1Cl [compound #91, (2s)-2-[[5-(3-Chloro-4-fluoro-phenyl)-thiophen-2-ylmethyl]-(2,4-dichloro-benzoyl)-amino]-3-phenyl-propionic acid] | < 5
O=C(O)[C@H](Cc1ccccc1)N(Cc1ccc(-c2ccc(Cl)c(F)c2)s1)C(=O)c1ccc(Cl)cc1Cl [compound #92, (2s)-2-[[5-(4-chloro-3-fluoro-phenyl)-thiophen-2-ylmethyl]-(2,4-dichloro-benzoyl)-amino]-3-phenyl-propionic acid] | < 5
O=C(O)[C@H](Cc1ccccc1)N(Cc1ccc(-c2ccc(Cl)cc2Cl)s1)C(=O)c1ccc(Cl)cc1Cl [compound #93, (2s)-2-{(2,4-Dichloro-benzoyl)-[5-(2,4-dichloro-phenyl)-thiophen-2-ylmethyl]-amino}-3-phenyl-propionic acid] | < 5
O=C(O)[C@H](Cc1ccccc1)N(Cc1ccc(-c2nccs2)s1)C(=O)c1ccc(Cl)cc1Cl [compound #94, (2s)-2-[(2,4-Dichloro-benzoyl)-(5-thiazol-2-yl-thiophen-2-ylmethyl)-amino]-3-phenyl-propionic acid] | < 5
O=C(O)[C@H](Cc1ccccc1)N(Cc1ccc(-c2cc(F)cc(F)c2)s1)C(=O)c1ccc(Cl)cc1Cl [compound #95, (2s)-2-{(2,4-Dichloro-benzoyl)-[5-(3,5-difluoro-phenyl)-thiophen-2-ylmethyl]-amino}-3-phenyl-propionic acid] | < 5
COc1cccc(-c2ccc(CN(C(=O)c3ccc(Cl)cc3Cl)[C@@H](Cc3ccccc3)C(=O)O)s2)c1 [compound #96, (2s)-2-{(2,4-Dichloro-benzoyl)-[5-(3-methoxy-phenyl)-thiophen-2-ylmethyl]-amino}-3-phenyl-propionic acid] | < 5
O=C(O)[C@H](Cc1ccccc1)N(Cc1ccc(-c2cccc(F)c2)s1)C(=O)c1ccc(Cl)cc1Cl [compound #97, (2s)-2-{(2,4-Dichloro-benzoyl)-[5-(3-fluoro-phenyl)-thiophen-2-ylmethyl]-amino}-3-phenyl-propionic acid] | < 5
O=C(O)[C@H](Cc1ccccc1)N(Cc1cccs1)C(=O)c1ccc(Cl)cc1Cl [compound #98, (2s)-2-[(2,4-Dichloro-benzoyl)-thiophen-2-ylmethyl-amino]-3-phenyl-propionic acid] | < 5
O=C(O)[C@H](Cc1ccccc1)N(Cc1cc(Br)cs1)C(=O)c1ccc(Cl)cc1Cl [compound #99, (2s)-2-[(4-Bromo-thiophen-2-ylmethyl)-(2,4-dichloro-benzoyl)-amino]-3-phenyl-propionic acid] | < 5
O=C(O)[C@H](Cc1ccccc1)N(Cc1cnc(N2CCN(c3ccccc3)CC2)s1)C(=O)c1ccc(Cl)cc1Cl [compound #100, (2s)-2-{(2,4-Dichloro-benzoyl)-[2-(4-phenyl-piperazin-1-yl)-thiazol-5-ylmethyl]-amino}-3-phenyl-propionic acid] | 5 to 20
O=C(O)[C@H](Cc1ccccc1)N(Cc1cnc(N2CCN(Cc3ccccc3)CC2)s1)C(=O)c1ccc(Cl)cc1Cl [compound #102, (2s)-2-[[2-(4-Benzyl-piperazin-1-yl)-thiazol-5-ylmethyl]-(2,4-dichloro-benzoyl)-amino]-3-phenyl-propionic acid] | < 5
O=C(O)[C@H](Cc1ccccc1)N(Cc1cnc(N2CCCCC2)s1)C(=O)c1ccc(Cl)cc1Cl [compound #103, (2s)-2-[(2,4-Dichloro-benzoyl)-(2-piperidin-1-yl-thiazol-5-ylmethyl)-amino]-3-phenyl-propionic acid] | < 5
CCN(CC)c1ncc(CN(C(=O)c2ccc(Cl)cc2Cl)[C@@H](Cc2ccccc2)C(=O)O)s1 [compound #104, (2s)-2-[(2,4-Dichloro-benzoyl)-(2-diethylamino-thiazol-5-ylmethyl)-amino]-3-phenyl-propionic acid] | < 5
COc1cc(C)c(S(=O)(=O)N(Cc2c(C(=O)c3ccc(Cl)cc3)oc3ccccc23)[C@@H](Cc2ccccc2)C(=O)O)c(C)c1C [compound #105, (2s)-2-[[2-(4-Chloro-benzoyl)-benzofuran-3-ylmethyl]-(4-methoxy-2,3,6-trimethyl-benzenesulfonyl)-amino]-3-phenyl-propionic acid] | 5 to 20

SMILES | IC50 [µM]
COc1cc(C)c(S(=O)(=O)N(Cc2c(C(F)(F)F)nn(C)c2Oc2ccc(Cl)cc2Cl)[C@@H](Cc2ccccc2)C(=O)O)c(C)c1C [compound #106, (2s)-2-[[5-(2,4-Dichloro-phenoxy)-1-methyl-3-trifluoromethyl-1h-pyrazol-4-ylmethyl]-(4-methoxy-2,3,6-trimethyl-benzenesulfonyl)-amino]-3-phenyl-propionic acid] | 5 to 20
O=C(CN(C(=O)c1ccc(Cl)cc1Cl)[C@@H](Cc1ccccc1)C(=O)O)c1ccc(-c2ccc(Cl)cc2Cl)o1 [compound #107, (2s)-2-((2,4-Dichloro-benzoyl)-{2-[5-(2,4-dichloro-phenyl)-furan-2-yl]-2-oxo-ethyl}-amino)-3-phenyl-propionic acid] | < 5
C=CCN(C(=O)c1ccc(Cl)cc1Cl)[C@@H](Cc1ccccc1)C(=O)O [compound #109, (2s)-2-[Allyl-(2,4-dichloro-benzoyl)-amino]-3-phenyl-propionic acid] | 5 to 20
CN(C(=O)c1ccc(Cl)cc1Cl)[C@@H](Cc1ccccc1)C(=O)O [compound #110, (2s)-2-[(2,4-Dichloro-benzoyl)-methyl-amino]-3-phenyl-propionic acid] | 5 to 20
C#CCN(C(=O)c1ccc(Cl)cc1Cl)[C@@H](Cc1ccccc1)C(=O)O [compound #111, (2s)-2-[(2,4-Dichloro-benzoyl)-prop-2-ynyl-amino]-3-phenyl-propionic acid] | 5 to 20
CCCN(C(=O)c1ccc(Cl)cc1Cl)[C@@H](Cc1ccccc1)C(=O)O [compound #112, (2s)-2-[(2,4-Dichloro-benzoyl)-propyl-amino]-3-phenyl-propionic acid] | > 20
O=C(O)[C@H](Cc1ccccc1)N(CC#Cc1cc2ccccc2o1)C(=O)c1ccc(Cl)cc1Cl [compound #113, (2s)-2-[(3-Benzofuran-2-yl-prop-2-ynyl)-(2,4-dichloro-benzoyl)-amino]-3-phenyl-propionic acid] | < 5
O=C(O)[C@H](Cc1ccccc1)N(C(=O)c1ccc(Cl)cc1Cl)c1ccc(-c2cc3ccccc3o2)cc1 [compound #114, (2s)-2-[(4-Benzofuran-2-yl-phenyl)-(2,4-dichloro-benzoyl)-amino]-3-phenyl-propionic acid] | < 5
CC(C)=CCN(C(=O)c1ccc(Cl)cc1Cl)[C@@H](Cc1ccccc1)C(=O)O [compound #115, (2s)-2-[(2,4-Dichloro-benzoyl)-(3-methyl-but-2-enyl)-amino]-3-phenyl-propionic acid] | 5 to 20
C=C(Br)CN(C(=O)c1ccc(Cl)cc1Cl)C(Cc1ccccc1)C(=O)O (stereo not drawn) [compound #116, 2-[(2-Bromo-allyl)-(2,4-dichloro-benzoyl)-amino]-3-phenyl-propionic acid] | 5 to 20
O=C(O)[C@H](Cc1ccccc1)N(Cc1ccc(-c2ccccc2C(F)(F)F)o1)C(=O)c1ccc(Cl)cc1Cl [compound #120, (2s)-2-{(2,4-Dichloro-benzoyl)-[5-(2-trifluoromethyl-phenyl)-furan-2-ylmethyl]-amino}-3-phenyl-propionic acid] | < 5
CCOC(=O)c1ccccc1-c1ccc(CN(C(=O)c2ccc(Cl)cc2Cl)[C@@H](Cc2ccccc2)C(=O)O)s1 [compound #121, (2s)-2-(5-{[(1s-1-Carboxy-2-phenyl-ethyl)-(2,4-dichloro-benzoyl)-amino]-methyl}-thiophen-2-yl)-benzoic acid ethyl ester] | < 5
CCOC(=O)c1cccc(-c2ccc(CN(C(=O)c3ccc(Cl)cc3Cl)[C@@H](Cc3ccccc3)C(=O)O)s2)c1 [compound #122, 3-(5-{[(1s-1-Carboxy-2-phenyl-ethyl)-(2,4-dichloro-benzoyl)-amino]-methyl}-thiophen-2-yl)-benzoic acid ethyl ester] | < 5
O=C(O)[C@H](Cc1ccccc1)N(Cc1ccc(-c2cccc(Cl)c2)o1)C(=O)c1ccc(Cl)cc1Cl [compound #123, (2s)-2-[[5-(3-Chloro-phenyl)-furan-2-ylmethyl]-(2,4-dichloro-benzoyl)-amino]-3-phenyl-propionic acid] | < 5
O=C(O)[C@H](Cc1ccccc1)N(Cc1sc(Br)cc1Br)C(=O)c1ccc(Cl)cc1I [compound #124, (2s)-2-[(4-Chloro-2-iodo-benzoyl)-(3,5-dibromo-thiophen-2-ylmethyl)-amino]-3-phenyl-propionic acid] | < 5
O=C(O)c1cccc(-c2ccc(CN(C(=O)c3ccc(Cl)cc3Cl)[C@@H](Cc3ccccc3)C(=O)O)s2)c1 [compound #125, (2s)-3-(5-{[(1-Carboxy-2-phenyl-ethyl)-(2,4-dichloro-benzoyl)-amino]-methyl}-thiophen-2-yl)-benzoic acid] | < 5
